Data published in patent US9067972B2, “Skin aging-inhibiting peptide” (CALPIS CO., LTD., priority 2008, dated 2015).
Peptide text beside a SMILES is read from it.

test system: Caco-2 cells
Procedure: Caco-2 cells were obtained from the American Type Culture Collection. Cells with a passage number of 40 to 70 were used for the permeation test. The culture medium comprised Dulbecco's modified Eagle's medium (Sigma) supplemented with fetal bovine serum (10%, AGC TECHNO GLASS CO., LTD.), a non-essential amino acid solution (1%, Gibco), and penicillin-streptomycin (each 200 IU/ml, 200 μg/ml, Gibco). The Caco-2 cells were cultured under humidified conditions at 37° C. and 5% CO2, and subcultured for every 4 to 5 days. For the permeation test, the cells were cultured on a membrane filter in a 12-transwell (Millipore). To a basal side 1.5 ml of the culture medium was added and 0.5 ml of culture medium was added to an apical side, and the cells were cultured for approximately 2 weeks. The enzymatic hydrolysate of the fermented milk was added to the apical side of the cultured Caco-2 cells. Peptides which were permeated to the basal side were collected. For comparison, the same test was performed on a digestive tract enzyme-degraded product of non-fermented reconstituted skimmed milk with a reconstitution ratio of 8.9%.
The peptides which were permeated to the basal solution were subjected to solid phase extraction (SepPak tC18, Waters) to thereby concentrate the peptide component and then the peptides were determine by using a high-performance liquid chromatograph tandem mass spectrometer (LCMS-IT-TOF, Shimadzu Corporation). PEAKS (Bioinformatics Solutions Inc) was used to analyze the data. Based on the information obtained from MS/MS, de novo sequencing was performed to determine the amino acid sequence of the permeated peptides. Comparison was made between the detected peptides and peptides contained in a digestive tract enzyme-hydrolyzed product of a milk protein.

Permeation through Caco-2 monolayer (apical to basal side)	SMILES
permeable	CC(C)[C@H](N)C(=O)N1CCC[C@H]1C(=O)N1CCC[C@H]1C(=O)N[C@@H](Cc1ccccc1)C(=O)O [Val-Pro-Pro-Phe] (H-VPPF-OH; N-terminus and C-terminus assumed)
permeable	CC[C@H](C)[C@H](N)C(=O)N1CCC[C@H]1C(=O)N1CCC[C@H]1C(=O)N[C@@H](CC(C)C)C(=O)O [Ile-Pro-Pro-Leu] (H-IPPL-OH; N-terminus and C-terminus assumed)
permeable	CC[C@H](C)[C@H](N)C(=O)N1CCC[C@H]1C(=O)N1CCC[C@H]1C(=O)O [Ile-Pro-Pro]
permeable	CC[C@H](C)[C@H](NC(=O)[C@@H](N)CC(N)=O)C(=O)N1CCC[C@H]1C(=O)N1CCC[C@H]1C(=O)N[C@@H](CC(C)C)C(=O)O [Asn-Ile-Pro-Pro-Leu] (H-NIPPL-OH; N-terminus and C-terminus assumed)
permeable	CC(C)C[C@H](N)C(=O)N1CCC[C@H]1C(=O)N1CCC[C@H]1C(=O)N[C@H](C(=O)O)[C@@H](C)O [Leu-Pro-Pro-Thr] (H-LPPT-OH; N-terminus and C-terminus assumed)

More lines, now with the values behind:

SMILES	Permeation through Caco-2 monolayer (apical to basal side)
CC(C)[C@H](NC(=O)[C@@H]1CCCN1)C(=O)N[C@H](C(=O)N[C@H](C(=O)N1CCC[C@H]1C(=O)N1CCC[C@H]1C(=O)O)C(C)C)C(C)C [Pro-Val-Val-Val-Pro-Pro] (H-PVVVPP-OH; N-terminus and C-terminus assumed)	permeable
CC(C)[C@H](N)C(=O)N1CCC[C@H]1C(=O)N1CCC[C@H]1C(=O)O [Val-Pro-Pro]	permeable
NC(=O)CC[C@H](NC(=O)[C@@H]1CCCN1C(=O)[C@@H]1CCCN1C(=O)[C@@H](N)Cc1ccccc1)C(=O)O [Phe-Pro-Pro-Gln] (H-FPPQ-OH; N-terminus and C-terminus assumed)	permeable
